What was measured:
[1] = Viscosity responsiveness: fluorescence emission spectra of probes in glycerol and methanol; assay type: physicochemical; settings: for Emission wavelength: excited at maximum excitation wavelength of each probe; for Fluorescence ratio in glycerol to methanol: probe 1×10^−5 M
Method in brief: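 Each probe, from a 1×10^−2 M DMSO stock, was diluted to a final 1×10^−5 M in glycerol and in methanol. Fluorescence emission spectra were then recorded under identical conditions at each probe's maximum excitation wavelength.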

[2] = Fluorescence of free probe prior to binding to a protein tag; assay type: physicochemical
[3] = target: T1, SNAP protein tags (Homo sapiens, UniProt P16455, A127T/A154D/C150Q/C62A/E30R/G131K/G132T/G153L/K125A/K32I/L33F/M134L/N157G/Q115S/Q116H/R128A/R135S/S151G/S152D/S159E); test: Fluorescence activation of probe after incubation with corresponding protein tag (SNAP); assay type: biochemical; settings: probe 5 μM, protein tag 10 μM, 37° C., 1 hr
T1 sequence (P16455 1-182 E30R/K32I/L33F/C62A/Q115S/Q116H/K125A/A127T/R128A/G131K/G132T/M134L/R135S/C150Q/S151G/S152D/G153L/A154D/N157G/S159E): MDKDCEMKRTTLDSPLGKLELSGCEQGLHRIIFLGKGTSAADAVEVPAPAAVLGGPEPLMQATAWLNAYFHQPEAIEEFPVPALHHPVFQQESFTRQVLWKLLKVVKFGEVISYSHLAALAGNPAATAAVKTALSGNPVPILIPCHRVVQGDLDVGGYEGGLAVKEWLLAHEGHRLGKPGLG
Method in brief: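 Probe (5 μM final) mixed with CLIP or SNAP protein tag (10 μM final) and incubated 1 hr at 37° C. Fluorescence intensity change measured by fluorescence spectrophotometer, with quantum yield of tag-bound probe determined.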

[4] = test system: HeLa cells with stable expression of protein tags; test: Labeling of HeLa cells expressing protein tags vs HeLa-WT cells, confocal imaging; assay type: cell-based; settings: probe 5 μM, 37° C., 2 hrs
Experimental: HeLa cells with stable expression of protein tags and HeLa-WT cells (HeLa primitive cells, with no protein tag expressed) were implanted in a 14 mm glass-bottom 96-well cell culture plate and stabilized for 10 hrs. Probes 1, 15, 21, 30, 56, 60, 63, 88 were added to the media, respectively and diluted to 5 μMs. The cells were incubated in a carbon dioxide incubator at 37° C. for 2 hrs, and then a Leica TPS-8 confocal microscopy was used to image the fluorescent changes of the labeled cells. […] However, for HeLa cells with protein tags expressed shown by group A in FIG. 12, strong fluorescent signals could be detected, which are nearly 300 times stronger.

[5] = test system: HeLa cells; test: Labeling of organelle-localized protein tags in HeLa cells without washing; assay type: cell-based; settings: 0.2 μM probe, 2 hrs, no washing
Source text: To verify that probes 1, 21, 48, 60, 66 and 77 can be used to label target proteins located by different organelles, HeLa cells were taken as an example to detect the effect of probes on labeling different subcellular proteins. HeLa cells were implanted 5000 cells per well in a 96-well glass-bottom cell culture plate. 14 hrs later, the cells were transfected with the plasmids encoding different organelle localized protein tags using Lipo2000; the original medium was removed 24 hrs after transfection, washed with a phenol-free red DMEM medium twice, and incubated with a phenol-free red medium containing 0.2 μM probes for 2 hrs, and then the cell labeling effects were detected by imaging with a leica TCS-8 confocal microscopy.

[6] = test system: fusion protein CX43-SNAP; test: Tracing assembly of CX43-SNAP intercellular channels in HeLa cells; assay type: cell-based; settings: probe 21 2 μM 1 hour first, then probe 1 1 μM
Source text: To verify that the probe of the present invention can be used to monitor the assembly and degradation process of biological macromolecules in mammalian cells in real time, the process of tracing the assembly of intercellular protein CX43 to form intercellular channels in mammalian cells by the probe was detected by taking HeLa cells as an example. The C-terminal of CX43 gene was fused with SNAP gene, and HeLa cell line with stable expression of fusion protein CX43-SNAP was constructed and obtained by lentivirus infection technology. HeLa-CX43-SNAP cell lines were implanted in a 20 mm glass-bottom cell culture dish 10 hrs before the probe labeling. To conduct labeling, a phenol-free red DMEM medium was first used to dilute the probe 21 to 2 μM to replace the original cell culture medium. Cells were incubated in a carbon dioxide incubator at 37° C. for 1 hour. The cells were then washed twice using a fresh phenol-free red DMEM medium, with unbound probe 21 removed at 2-minute intervals. Then, DMEM phenol-free red culture medium containing 1 μM probe 1 was added to label cells. Leica SP8 confocal microscopy was used to monitor for a long time the fluorescence intensity and position changes of labeled cell samples at the corresponding fluorescence channels of probes 21 and 1, as shown in FIGS. 17A and 17B, respectively. […]

[7] = test system: CLIP protein tags; test: Fluorescence activation of probe after incubation with corresponding protein tag (CLIP); assay type: biochemical; settings: probe 5 μM, protein tag 10 μM, 37° C., 1 hr
Experimental: Probes were mixed with corresponding protein tags to obtain mixed samples, in which the final probe concentration was 5 μM, and the final protein tag concentration was 10 μM. The mixed samples were incubated 37° C. for 1 hr, fluorescence spectrophotometer was used to detect the change in fluorescence intensity, and the results are shown in Table 1.
From the quantum yield of probe bound to protein tag, after reacting with the protein tags, the probes of the Examples could be detected to have significant signal enhancement in corresponding excitation transmission channels, the fluorescence activation multiple reached several hundreds to a thousand or more, and the brightness was high, which illustrates that after the probes of the Examples are bound to the protein tags, fluorescence of the probes can be activated, and the probes have good fluorescent molecular switching properties. In contrast, though the fluorescence of the reference probes could also be activated, the quantum yield of activated fluorescence was very low, and the brightness was very poor. In particular, in view of comparison results between probe 98 and reference probe 99, probe 101 and reference probe 102, probe 103 and reference probe 104, probe 105 and reference probe 106, probe 107 and reference probe 108, probe 109 and reference probe 110, probe 111 and reference probe 112, probe 114 and reference probe 115, probe 117 and reference probe 118, probe 120 and reference probe 121 in Table 1, for the same fluorescent dye, when the ligand is connected to the electron donor part of the fluorescent dye, the fluorescence activation brightness of the probe is much higher than the reference probe in which ligand is connected to the electron acceptor part of the fluorescent dye.

[8] = target: T2, SNAP protein tag (Homo sapiens, UniProt P16455, A127T/A154D/C150Q/C62A/E30R/G131K/G132T/G153L/K125A/K32I/L33F/M134L/N157G/Q115S/Q116H/R128A/R135S/S151G/S152D/S159E); test: In vivo labeling of SNAP protein tag expressed in mouse liver; settings: mice, tail vein injection, 6 hrs after probe
T2 construct: expressed in transfected cells; host or cells: mouse liver after tail-vein plasmid injection
T2 sequence (P16455 1-182 E30R/K32I/L33F/C62A/Q115S/Q116H/K125A/A127T/R128A/G131K/G132T/M134L/R135S/C150Q/S151G/S152D/G153L/A154D/N157G/S159E): T1 sequence (P16455 1-182 E30R/K32I/L33F/C62A/Q115S/Q116H/K125A/A127T/R128A/G131K/G132T/M134L/R135S/C150Q/S151G/S152D/G153L/A154D/N157G/S159E)
Experimental: (§1) First, a SNAP protein tag expressing plasmid, pcdna3.1-SNAP (sample group), and a control plasmid without SNAP protein tag expressing, pcdna3.1-CAT (control group), were introduced into mice. This method dissolves plasmids in a large volume of solution and rapidly injects them into mice through tail vein injection. The mouse liver and kidneys absorb DNA and then express the target protein. 20 hrs after plasmid injection, 0.4 μM probe 88 dissolved in 200 μl PBS was injected into mice through tail vein injection to label the SNAP protein tag. 6 hrs later, the mice were dissected, and the fluorescence differences in the liver parts of different mouse samples were detected by KODAK multi-spectral in vivo imaging system. The liver fluorescence of the control plasmid pcdna3.1-CAT injected with probe 88 was very low, close to the background fluorescence level of the blank liver without the probe, while the liver of SNAP plasmid pcdna3.1-SNAP injected with probe 88 had strong fluorescence, and the signal intensity was more than 20 times higher than that of the control group.

[9] = test system: SNAP protein tag; test: as above; settings: mice, tail vein injection, 6 hrs after probe
Experimental: as §1

Compound | Emission wavelength [1] | Fluorescence ratio in glycerol to methanol [1] | Quantum yield of free probe [2] | Fluorescence activation multiple [3] | Quantum yield of probe bound to protein tag [3] | Fluorescence signal in HeLa-WT cells (no protein tag expressed) [4] | Fluorescent signal in HeLa cells with protein tags expressed, relative to HeLa-WT [4] | Labeling of subcellular organelle structures [5] | Fluorescence signal at intercellular channels [6] | Fluorescence activation multiple [7] | Quantum yield of probe bound to protein tag [7] | Liver fluorescence signal intensity of pcdna3.1-SNAP group relative to control group [8] | Liver fluorescence of control plasmid pcdna3.1-CAT group [9]
CN(CCOC(=O)NCc1ccc(COc2nc(N)nc3[nH]cnc23)cc1)c1ccc(/C=C(\C#N)C(=O)OC(C)(C)C)cc1 [probe 1] | 480 nm | 560 | <0.001 | 360 | 0.35 | no corresponding fluorescence signal was detected | ~300 times | clearly display a variety of subcellular organelle structures without washing | appeared and gradually increased at the edge of intercellular channels | – | – | – | –
CN(CCOC(=O)NCc1ccc(COc2nccc(N)n2)cc1)c1ccc2nc(/C=C(\C#N)c3nc4ccccc4s3)oc2c1 [probe 48] | 625 nm | 180 | <0.001 | – | – | – | – | clearly display a variety of subcellular organelle structures without washing | – | 428 | 0.16 | – | –
CN(CCOC(=O)NCc1ccc(COc2nc(N)nc3[nH]cnc23)cc1)c1ccc(C#C/C=C(\C#N)C(=O)OC(C)(C)C)cc1 [probe 56] | 566 nm | 436 | <0.001 | 989 | 0.39 | no corresponding fluorescence signal was detected | ~300 times | – | – | – | – | – | –
CN(CCOC(=O)NCc1ccc(COc2nc(N)nc3[nH]cnc23)cc1)c1ccc(-c2ccc(/C=C(\C#N)C(=O)OC(C)(C)C)s2)cc1 [probe 66] | 620 nm | 386 | <0.001 | 512 | 0.37 | – | – | clearly display a variety of subcellular organelle structures without washing | – | – | – | – | –
CN(CCOC(=O)NCc1ccc(COc2nc(N)nc3[nH]cnc23)cc1)c1ccc(-c2ccc(/C=C(\C#N)C(=O)OC(C)(C)C)s2)s1 [probe 77] | 655 nm | 279 | 0.0014 | 268 | 0.38 | – | – | clearly display a variety of subcellular organelle structures without washing | – | – | – | – | –
CC1=CC(C)(C)N(CCOC(=O)NCc2ccc(COc3nc(N)nc4[nH]cnc34)cc2)c2ccc(/C=C(\C#N)c3nc4ccccc4o3)cc21 [probe 88] | 595 nm | 298 | <0.001 | 621 | 0.29 | no corresponding fluorescence signal was detected | ~300 times | – | – | – | – | more than 20 times | very low
CN(CCOC(=O)NCc1ccc(COc2nccc(N)n2)cc1)c1cc2c(s1)-c1sc(/C=C(/C#N)c3nc4ccccc4s3)cc1C2(C)C [probe 97] | 700 nm | 261 | <0.001 | – | – | – | – | – | – | 812 | 0.23 | – | –

More lines, main results first:

Emission wavelength [1] | Fluorescence ratio in glycerol to methanol [1] | Quantum yield of free probe [2] | Fluorescence activation multiple [3] | Quantum yield of probe bound to protein tag [3] | Compound | Fluorescence signal in HeLa-WT cells (no protein tag expressed) [4] | Fluorescent signal in HeLa cells with protein tags expressed, relative to HeLa-WT [4] | Labeling of subcellular organelle structures [5] | Fluorescence signal at intercellular channels [6] | Fluorescence activation multiple [7] | Quantum yield of probe bound to protein tag [7] | Liver fluorescence signal intensity of pcdna3.1-SNAP group relative to control group [8] | Liver fluorescence of control plasmid pcdna3.1-CAT group [9]
570 nm | 1125 | <0.001 | 535 | 0.55 | CN(CCOC(=O)NCc1ccc(COc2nc(N)nc3[nH]cnc23)cc1)c1ccc2cc(/C=C(\C#N)C(=O)OC(C)(C)C)sc2c1 [probe 30] | no corresponding fluorescence signal was detected | ~300 times | – | – | – | – | – | –
620 nm | 1199 | 0.0011 | 751 | 0.81 | CN(CCOC(=O)NCc1ccc(COc2nc(N)nc3[nH]cnc23)cc1)c1cc2sc3cc(/C=C(\C#N)C(=O)OC(C)(C)C)sc3c2s1 [probe 60] | no corresponding fluorescence signal was detected | ~300 times | clearly display a variety of subcellular organelle structures without washing | – | – | – | – | –
620 nm | 531 | 0.0015 | 486 | 0.73 | CN(CCOC(=O)NCc1ccc(COc2nc(N)nc3[nH]cnc23)cc1)c1ccc2c(c1)sc1cc(/C=C(/C#N)C(=O)OC(C)(C)C)sc12 [probe 63] | no corresponding fluorescence signal was detected | ~300 times | – | – | – | – | – | –
